From patent US20150064794A1, “BIORELEVANT COMPOSITIONS” (PHARES PHARMACEUTICAL RESEARCH N.V., priority 2012, published 2015)
≈ marks a conversion by molar mass, not a printed value.

Tests used:
physchem = settings: fassif
[1] = medium FaSSIF-Original; Söderlind; cited from earlier work
[2] = Solubility in canine FaSSIF (FaSSIF-canine)

solubility (physchem) [µg/mL]	SMILES	solubility in prior art FaSSIF-Original [1] [µg/mL]	solubility [2] [µg/mL]
75 (≈ 149 µM)	OCCN(CCO)c1nc(N2CCCCC2)c2nc(N(CCO)CCO)nc(N3CCCCC3)c2n1 [dipyridamole]	19 (≈ 37.7 µM)	
	CC(=O)N1CCN(c2ccc(OCC3COC(Cn4ccnc4)(c4ccc(Cl)cc4Cl)O3)cc2)CC1 (stereo not shown) [ketoconazole]	26 (≈ 48.9 µM)	84.2 (≈ 158 µM)
